Data as given in US20050080113A1, “Medicinal compositions” (priority 2001, published 2005).

Compound	melting point [°C]
CC(=O)Nc1cc(-c2sc(C)nc2-c2cccc(C)c2)ccn1 [H 82-10, N-[4 [2 methyl-4 (3-methylphenyl)-1,3 thiazol-5 yl]-2 pyridyl]acetamide]	162 to 163
CC(=O)Nc1cc(-c2scnc2-c2cccc(C)c2)ccn1 [H 82-11, N-[4 [4 (3 methylphenyl)-1,3 thiazol-5 yl]-2 pyridyl]acetamide]	149 to 150
CSc1ccc(-c2nc(-c3cccc(C)c3)c(-c3ccnc(NC(C)=O)c3)s2)cc1 [H 82-12, N-[4 [4 (3 methylphenyl)-2 [4 (methylthio)phenyl]-1,3 thiazol-5 yl]-2 pyridyl]acetamide]	181 to 182
CCC(=O)Nc1cc(-c2sc(CC)nc2-c2ccccc2)ccn1 [H 84-1, N-[4 (2 ethyl-4 phenyl-1,3-thiazol-5 yl)-2 pyridyl]propionamide]	139 to 140
CCC(=O)Nc1cc(-c2sc(CC)nc2-c2ccc(F)cc2)ccn1 [H 84-2, N-[4 [2 ethyl-4 (4-fluorophenyl)-1,3 thiazol-5 yl]-2 pyridyl]propionamide]	156 to 157
CCC(=O)Nc1cc(-c2sc(CC)nc2-c2cccc(C(F)(F)F)c2)ccn1 [H 84-3, N-[4 [2 ethyl-4 (3-trifluoromethylphenyl)-1,3 thiazol-5 yl]-2 pyridyl]propionamide]	126 to 127
CCC(=O)Nc1cc(-c2sc(CC)nc2-c2ccc(F)c(C)c2)ccn1 [H 84-4, N-[4 [2 ethyl-4 (4 fluoro-3 methylphenyl)-1,3 thiazol-5 yl]-2 pyridyl]propionamide]	105 to 107
CCC(=O)Nc1cc(-c2sc(CC)nc2-c2cccc(F)c2)ccn1 [H 84-5, N-[4 [2 ethyl-4 (3-fluorophenyl)-1,3 thiazol-5 yl]-2 pyridyl]propionamide]	121 to 122
CCC(=O)Nc1cc(-c2sc(CC)nc2-c2ccc(Cl)cc2)ccn1 [H 84-6, N-[4 [4 (4 chlorophenyl)-2-ethyl-1,3 thiazol-5 yl]-2 pyridyl]propionamide]	152 to 153
CCC(=O)Nc1cc(-c2sc(CC)nc2-c2cccc(C(C)C)c2)ccn1 [H 84-7, N-[4 [2 ethyl-4 [3 (1-methylethyl)phenyl]-1,3 thiazol-5 yl]-2 pyridyl]propionamide]	93 to 94
CCCc1cccc(-c2nc(CC)sc2-c2ccnc(NC(=O)CC)c2)c1 [H 84-8, N-[4 [2 ethyl-4 (3-propylphenyl)-1,3 thiazol-5 yl]-2 pyridyl]propionamide]	124 to 125
CCCC(=O)Nc1cc(-c2sc(CC)nc2-c2cccc(Cl)c2)ccn1 [H 86, N-[4 [4 (3 chlorophenyl)-2-ethyl-1,3 thiazol-5 yl]-2 pyridyl]butyramide]	119 to 120
CCCCC(=O)Nc1cc(-c2sc(CC)nc2-c2cccc(C)c2)ccn1 [H 87-1, N-[4 [2 ethyl-4 (3-methylphenyl)-1,3 thiazol-5 yl]-2 pyridyl]valeramide]	81 to 82
CCCCCC(=O)Nc1cc(-c2sc(CC)nc2-c2cccc(C)c2)ccn1 [H 87-2, N-[4 [2 ethyl-4 (3-methylphenyl)-1,3 thiazol-5 yl]-2 pyridyl]hexanamide]	84 to 85
CCCCC(=O)Nc1cc(-c2sc(CC)nc2-c2cccc(Cl)c2)ccn1 [H 88-1, N-[4 [4 (3 chlorophenyl)-2-ethyl-1,3 thiazol-5 yl]-2 pyridyl]valeramide]	109 to 110
CCCCCC(=O)Nc1cc(-c2sc(CC)nc2-c2cccc(Cl)c2)ccn1 [H 88-2, N-[4 [4 (3 chlorophenyl)-2-ethyl-1,3 thiazol-5 yl]-2 pyridyl]hexanamide]	114 to 115
CCc1nc(-c2cccc(C)c2)c(-c2ccnc(NC(=O)CC3CCCC3)c2)s1 [H 89, N-[4 [2 ethyl-4 (3-methylphenyl)-1,3 thiazol-5 yl]-2 pyridyl]cyclopentylacetamide]	85 to 86
CCc1nc(-c2cccc(Cl)c2)c(-c2ccnc(NC(=O)CC3CCCC3)c2)s1 [H 90-1, N-[4 [4 (3 chlorophenyl)-2-ethyl-1,3 thiazol-5 yl]-2 pyridyl]cyclopentylacetamide]	121 to 122
CCc1nc(-c2ccc(Cl)cc2)c(-c2ccnc(NC(=O)CC3CCCC3)c2)s1 [H 90-2, N-[4 [4 (4 chlorophenyl)-2-ethyl-1,3 thiazol-5 yl]-2 pyridyl]cyclopentylacetamide]	149 to 150
CC(=O)Nc1cc(-c2sc(C3CCN(C(C)=O)CC3)nc2-c2cccc(Cl)c2)ccn1 [H 93, N-[4 [2 (1 acetylpiperidin-4 yl)-4 (3 chlorophenyl)-1,3-thiazol-5 yl]-2 pyridyl]acetamide]	160 to 161
CCC(=O)Nc1cc(-c2sc(C3CCN(C(C)=O)CC3)nc2-c2cccc(Cl)c2)ccn1 [H 94, N-[4 [2 (1 acetylpiperidin-4-yl)-4 (3 chlorophenyl)-1,3 thiazol-5 yl]-2-pyridyl]propionamide]	174 to 175

Compound	melting point [°C]
CC(=O)Nc1cc(-c2sc(-c3ccc(S(C)(=O)=O)cc3)nc2-c2cccc(C)c2)ccn1 [H 98-1, N-[4 [4 (3 methylphenyl)-2-(4 methylsulfonylphenyl)-1,3 thiazol-5 yl]-2 pyridyl]acetamide]	222 to 223
CCC(=O)Nc1cc(-c2sc(-c3ccc(S(C)(=O)=O)cc3)nc2-c2cccc(C)c2)ccn1 [H 98-2, N-[4 [4 (3 methylphenyl)-2-(4 methylsulfonylphenyl)-1,3 thiazol-5 yl]-2 pyridyl]propionamide]	238 to 239
CSCCc1nc(-c2cccc(C)c2)c(-c2ccnc(N)c2)s1 [H 99-1, 4 [4 (3 methylphenyl)-2 [2-(methylthio)ethyl]-1,3 thiazol-5 yl]-2 pyridylamine]	98 to 99
Cc1cccc(-c2nc(C(C)OC(=O)c3ccccc3)sc2-c2ccnc(N)c2)c1 (stereo not drawn) [H 99-2, 1 [5 (2 amino-4 pyridyl)-4-(3 methylphenyl)-1,3 thiazol-2 yl]ethyl benzoate]	89 to 91
CSCCc1nc(-c2cccc(Cl)c2)c(-c2ccnc(N)c2)s1 [H 100-1, 4 [4 (3 chlorophenyl)-2-[2 (methylthio)ethyl]-1,3 thiazol-5 yl]-2 pyridylamine]	96 to 97
CSCc1nc(-c2cccc(Cl)c2)c(-c2ccnc(N)c2)s1 [H 101-1, 4 [4 (3 chlorophenyl)-2-(methylthio)methyl-1,3 thiazol-5 yl]-2 pyridylamine]	111 to 112
CC(F)(F)c1nc(-c2cccc(Cl)c2)c(-c2ccnc(N)c2)s1 [H 101-2, 4 [4 (3 chlorophenyl)-2-(1,1 difluoroethyl)-1,3 thiazol-5 yl]-2 pyridylamine]	131 to 132
CCC(=O)Nc1cc(-c2sc(CCSC)nc2-c2cccc(C)c2)ccn1 [H 102-1, N-[4 [4 (3 methylphenyl)-2 [2 (methylthio)ethyl]-1,3 thiazol-5 yl]-2-pyridyl]propionamide]	85 to 86
CCC(=O)Nc1cc(-c2sc(CCSC)nc2-c2cccc(Cl)c2)ccn1 [H 102-2, N-[4 [4 (3 chlorophenyl)-2 [2 (methylthio)ethyl]-1,3 thiazol-5 yl]-2-pyridyl]propionamide]	91 to 92
CCC(=O)Nc1cc(-c2sc(CSC)nc2-c2cccc(Cl)c2)ccn1 [H 102-3, N-[4 [4 (3 chlorophenyl)-2 (methylthio)methyl-1,3 thiazol-5 yl]-2 pyridyl]propionamide]	118 to 119
CCC(=O)Nc1cc(-c2sc(C(C)(F)F)nc2-c2cccc(Cl)c2)ccn1 [H 102-4, N-[4 [4 (3 chlorophenyl)-2 (1,1 difluoroethyl)-1,3 thiazol-5 yl]-2 pyridyl]propionamide]	141 to 142
CCC(=O)Nc1cc(-c2sc(C(C)OC(=O)c3ccccc3)nc2-c2cccc(C)c2)ccn1 (stereo not drawn) [H 102-5, 1 [4 (3 methylphenyl)-5-(2 propionylamino-4 pyridyl)-1,3 thiazol-2 yl]ethyl benzoate]	102 to 103
CCC(=O)Nc1cc(-c2sc(C(C)OC(=O)c3ccccc3)nc2-c2cccc(Cl)c2)ccn1 (stereo not drawn) [H 102-6, 1 [4 (3 chlorophenyl)-5-(2 propionylamino-4 pyridyl)-1,3 thiazol-2 yl]ethyl benzoate]	124 to 127
CC(=O)Nc1cc(-c2sc(C(C)OC(=O)c3ccccc3)nc2-c2cccc(Cl)c2)ccn1 (stereo not drawn) [H 103-1, 1 [5 (2 acetylamino-4-pyridyl)-4 (3 chlorophenyl)-1,3 thiazol-2 yl]ethyl benzoate]	152 to 154
CCOC(=O)Cc1nc(-c2cccc(Cl)c2)c(-c2ccnc(NC(C)=O)c2)s1 [H 103-2, ethyl [5 (2 acetylamino-4-pyridyl)-4 (3 chlorophenyl)-1,3 thiazol-2 yl]acetate]	99 to 100
CCC(=O)Nc1cc(-c2sc(C(C)O)nc2-c2cccc(C)c2)ccn1 (stereo not drawn) [H 104, N-[4 [2 (1 hydroxyethyl)-4 (3 methylphenyl)-1,3 thiazol-5 yl]-2 pyridyl]propionamide]	115 to 116
CCC(=O)Nc1cc(-c2sc(C(C)O)nc2-c2cccc(Cl)c2)ccn1 (stereo not drawn) [H 105, N-[4 [4 (3 chlorophenyl)-2-(1 hydroxyethyl)-1,3 thiazol-5 yl]-2 pyridyl]propionamide]	131 to 132
CCC(=O)Nc1cc(-c2sc(C(C)=O)nc2-c2cccc(C)c2)ccn1 [H 106, N-[4 [2 acetyl-4 (3 methylphenyl)-1,3 thiazol-5 yl]-2-pyridyl]propionamide]	121 to 123
CCC(=O)Nc1cc(-c2sc(C(C)=O)nc2-c2cccc(Cl)c2)ccn1 [H 107, N-[4 [2 acetyl-4 (3-chlorophenyl)-1,3 thiazol-5 yl]-2 pyridyl]propionamide]	115 to 117
CCNC(=O)Nc1cc(-c2sc(CC)nc2-c2cccc(C)c2)ccn1 [H 108, N-ethyl-N′-[4 [2 ethyl-4 (3 methylphenyl)-1,3 thiazol-5 yl]-2-pyridyl]urea]	160 to 162
CCNC(=O)Nc1cc(-c2sc(CC)nc2-c2cccc(Cl)c2)ccn1 [H 109, N-[4 [4 (3 chlorophenyl)-2-ethyl-1,3 thiazol-5 yl]-2 pyridyl]-N′-ethyl-urea]	177 to 180
